The text below walks through data of patent US11028074B2, “CD73 inhibitors” (Eli Lilly and Company, priority 2018, dated 2021).

In one assay the target is T1, murine CD73 (Mus musculus, UniProt Q61503).
T1 construct: from tissue; host or cells: mouse whole blood (heparin) from orally dosed animals
T1 sequence (Q61503 29-551): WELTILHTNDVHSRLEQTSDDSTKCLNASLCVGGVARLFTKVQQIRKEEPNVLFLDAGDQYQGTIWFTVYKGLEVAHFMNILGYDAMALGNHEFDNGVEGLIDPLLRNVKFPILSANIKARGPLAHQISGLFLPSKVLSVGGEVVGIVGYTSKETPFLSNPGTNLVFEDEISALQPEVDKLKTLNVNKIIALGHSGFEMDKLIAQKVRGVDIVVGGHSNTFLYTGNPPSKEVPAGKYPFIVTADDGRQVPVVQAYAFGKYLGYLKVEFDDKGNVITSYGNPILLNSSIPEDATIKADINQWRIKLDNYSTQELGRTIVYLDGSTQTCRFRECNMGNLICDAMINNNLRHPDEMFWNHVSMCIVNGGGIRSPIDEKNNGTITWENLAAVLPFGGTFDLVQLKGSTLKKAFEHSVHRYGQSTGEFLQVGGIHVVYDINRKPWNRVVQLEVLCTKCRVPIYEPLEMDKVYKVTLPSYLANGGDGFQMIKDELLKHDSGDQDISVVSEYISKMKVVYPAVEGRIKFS
The experiment in a line: Ex Vivo Target Inhibition Assay (mouse whole blood after oral dosing). Format: in vivo. The settings on record: read-out: Inhibition of AMP conversion to adenosine, Inhibition (%). As for the experimental part:
The animals (6/group) are dosed orally with each compound formulated in 20% HPBCD (2-hydroxypropyl-β-cyclodextrin), pH 2 after tumors reach to approximately 400 mm^3.

In the next assay the test system is CD4^+ T cells. The assay is described as follows: Cytokine Analysis (ELISA). The assay is classed as cell-based, human. As for the experimental part:
CFSE labeled human PBMCs (600,000 cells/mL) or CD4 cells (500,000 cells/mL) are mixed with Dynabeads® Human T-Activator CD3/CD28 (Gibco, cat #11131D) at a ratio of 1:1 of cell/beads and human IL-2 (60 IU/ml, Roche, cat #: 11011456001). Cells are placed in a 37° C. water bath for 10 min to pre-activate T cells. PBMCs (125 μl/well) or CD4 cells (100 μl/well) are transferred to a 96 well plate (Costar 3799, Corning Inc.). To test compounds using PBMCs, test compounds at various concentrations are prepared in cell normal growth media (125 μL) containing 400-600 μM AMP. To test compounds using CD4 cells, test compounds at various concentrations are prepared in cell normal growth media (100 μL) containing 200-250 μM AMP. Treated cells are cultured at 37° C., 5% CO2 for 68-70 hr.
Medium (160 μl) containing treated PBMCs is transferred to a plate and the remaining medium used for cytokine assay is transferred to AcroPrep 96 plates (AcroPrep 96 Filter plate, Omega 3K NTRL 350 ul well, Pall Life Science Cat #8033) for preparation of samples for LC-MS analysis of metabolites.
Culture medium from treated PBMCs is diluted at 1:7.5, 1:2.5 and 1:50 with 1× ELISA/ELISPOT Diluent from cytokine ELISA kits and analyzed for TNFα using Human TNF alpha ELISA Ready-SET-GO! Kit (eBioscience cat #88-7346-22), IL-1β using Human IL-1β ELISA ready-SET-GO! Kit (2nd generation) (eBioscience, cat #88-7261-22) and IFNγ using Human IFN gamma ELISA ready-SET-GO! Kit (eBioscience, cat #88-7316-22) based manufacturer's manuals.
In general terms: ELISA stands for enzyme-linked immunosorbent assay.

Another assay concerns human PBMCs or CD4 cells. The assay is described as follows: T Cell Suppression Assay (rescue of adenosine-mediated inhibition of T cell proliferation). The assay is classed as cell-based. To be noted: for Rescue of T cell proliferation (%): AMP in medium, 68-70 hr. How it is done:
Cells are placed in a 37° C. water bath for 10 min to pre-activate T cells. […] To test compounds using PBMCs, test compounds at various concentrations are prepared in cell normal growth media (125 μL) containing 400-600 μM AMP. […] Treated cells are cultured at 37° C., 5% CO2 for 68-70 hr.
Medium (100 μl) containing CD4 cells is transferred to and filtered through AcroPrep plates to another plate via centrifugation at 1500 g for 2 hr. Filtered medium (50 μl/well) is mixed with the same volume of 80% methanol, 1% NH4OH, and internal standards (250 ng/mL ^13C5-AMP and 250 ng/mL ^13C5-Adenosine) for LC-MS analysis of metabolites.
Treated PBMCs or CD4 cells are collected and stained for Flow Cytometry to quantify T cell proliferation.
Flow data are acquired by BD FACS Verse. Each fluorescence channel is appropriately compensated. The data are processed on FloJo ver. 7.6.5 with the following gating strategy: lymphocytes gated on FSC vs SSC dot plot; viable cells of lymphocytes gated on SSC vs Zombie Aqua dot plot; CD3 cells of viable lymphocytes gated on APC-Cy7 vs Zombie Aqua dot plot1; CD4 cell and CD8 cells of CD3 cells gated on APC vs Pacific Blue dot plot; CD4 and CD8 cells further gated on APC vs CFSE(FITC) and Pacific Blue vs CFSE(FITC) dot plots. Proliferation of CD4 and CD8 cells is analyzed by a proliferation tool.

The next assay deals with T2, CD73 (Homo sapiens, UniProt P21589).
T2 sequence (P21589 27-549): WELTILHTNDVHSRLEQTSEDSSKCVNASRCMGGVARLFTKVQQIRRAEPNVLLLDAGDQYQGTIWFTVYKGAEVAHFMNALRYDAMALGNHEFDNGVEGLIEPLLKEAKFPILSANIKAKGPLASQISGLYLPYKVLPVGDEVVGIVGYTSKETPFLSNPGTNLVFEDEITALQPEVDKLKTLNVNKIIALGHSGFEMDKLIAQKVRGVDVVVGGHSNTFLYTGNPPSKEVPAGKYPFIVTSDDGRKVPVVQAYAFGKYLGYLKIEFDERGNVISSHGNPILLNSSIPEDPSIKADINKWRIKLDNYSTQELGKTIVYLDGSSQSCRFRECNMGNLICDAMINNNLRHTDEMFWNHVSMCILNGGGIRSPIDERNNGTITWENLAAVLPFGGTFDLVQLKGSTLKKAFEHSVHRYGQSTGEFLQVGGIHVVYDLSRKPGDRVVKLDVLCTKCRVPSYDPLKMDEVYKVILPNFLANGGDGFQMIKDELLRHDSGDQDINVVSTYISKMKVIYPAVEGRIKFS
The assay is described as follows: LC/MS Based Assay for Measuring CD73 Activity in Human Serum. The settings on record: concentrations corrected with the fraction unbound, read-out: EC50, inhibition of CD73 activity in human serum. Also noted: from tissue; host or cells: normal human serum. The assay is classed as biochemical. How it is done: Fresh normal human blood is centrifuged at 1,500 g for 15 minutes at room temperature, and the upper fraction containing serum is collected. […] After incubation on ice for 60 min, […] (50 uM) is added to each well in the plate, and the plate is incubated at room temperature for 15 min. The plate is then placed on dry ice with addition of 200 uL/well of 17.3 TCA followed by shaking at 26 fps for 3 min with a plate-shaking machine (Qiagen). The plate is then centrifuged at 2940 g for 20 min at 4° C. […] After further centrifugation at 2940 g for 20 min at 4° C., 200 ul/well of the supernatant is used for analysis of ^13C10-^15N5-adenosine, ^13C10-^15N5-inosine and ^15N5-hypoxanthine by LC/MS as described above. For EC50 calculations, the concentrations of the CD73 inhibitor in the serum are corrected with the fraction unbound (%) derived from in silico models or experimentally.

A word on the inhibition: it is the change of the read-out against control, counted positive when it falls. For orientation: EC50 means the concentration at which the effect is half-maximal.

As to `Cc1nnc(-c2c[nH]c(=O)[nH]c2=O)cc1[C@H]1C[C@@H]1C(C)C` [Example 2, 5-[5-[(1S,2R)-2-isopropylcyclopropyl]-6-methyl-pyridazin-3-yl]-1H-pyrimidine-2,4-dione], the inhibition at 1 mg/kg on murine CD73 (1 mg/kg oral) is -10.6%. Besides, the inhibition at 2.5 mg/kg at murine CD73 (2.5 mg/kg oral) amounted to 25.2%. Besides, the inhibition at 6.4 mg/kg at murine CD73 (6.4 mg/kg oral) came to 37%. Further, the inhibition at 16 mg/kg on murine CD73 (16 mg/kg oral) turned out to be 56.5%. Besides, the inhibition at 40 mg/kg on murine CD73 (40 mg/kg oral) turned out to be 88.6%. Further, the inhibition at 100 mg/kg at murine CD73 (100 mg/kg oral) amounted to 94.3%. In addition, the “INF-γ release, INF-γ” value worked out at 34.5 pg/mL with CD4^+ T cells (compound 0.003 uM); 29.5 pg/mL in the assay with CD4^+ T cells (compound 0.008 uM); 51.1 pg/mL in the assay with CD4^+ T cells (compound 0.025 uM); 59.4 pg/mL with CD4^+ T cells (compound 0.074 uM); 146.7 pg/mL with CD4^+ T cells (compound 0.222 uM); 99.5 pg/mL in the assay on CD4^+ T cells (compound 2.000 uM). Also, the “INF-γ release, INF-γ” value with CD4^+ T cells (compound 6.000 uM) came to 105.3 pg/mL. Moreover, the “TNF-α release, TNF-α” value in the assay on CD4^+ T cells (compound 0.003 uM) is reported as 386.3 pg/mL; in the assay on CD4^+ T cells (compound 0.008 uM) it was 419.9 pg/mL; in the assay on CD4^+ T cells (compound 0.025 uM), 557.8 pg/mL; in the assay with CD4^+ T cells (compound 0.074 uM), 782.0 pg/mL; in the assay on CD4^+ T cells (compound 0.222 uM) it was 1265.5 pg/mL; with CD4^+ T cells (compound 2.000 uM) it was 1183.9 pg/mL. Besides, the “TNF-α release, TNF-α” value in the assay on CD4^+ T cells (compound 6.000 uM) came to 1985.5 pg/mL. For the same compound, the “Adenosine (uM) in the growth medium” value with human PBMCs or CD4 cells (compound 0.00229 uM) worked out at 0.28 µM; in the assay with human PBMCs or CD4 cells (compound 0.00686 uM), 0.28 µM; in the assay with human PBMCs or CD4 cells (compound 0.02058 uM), 0.21 µM; in the assay with human PBMCs or CD4 cells (compound 0.06173 uM) it was 0.15 µM; in the assay on human PBMCs or CD4 cells (compound 0.18519 uM), 0.086 µM; in the assay on human PBMCs or CD4 cells (compound 0.55556 uM), 0.046 µM. The “Adenosine (uM) in the growth medium” value was 0.027 µM in the assay on human PBMCs or CD4 cells (compound 1.66667 uM) and 0.017 µM in the assay with human PBMCs or CD4 cells (compound 5.00 uM). Moreover, the “Rescue of T cell proliferation (%)” value was −6% in the assay on human PBMCs or CD4 cells (compound 0.00229 uM); −3% in the assay on human PBMCs or CD4 cells (compound 0.00686 uM); −2% in the assay on human PBMCs or CD4 cells (compound 0.02058 uM); 37% in the assay with human PBMCs or CD4 cells (compound 0.06173 uM); 95% in the assay on human PBMCs or CD4 cells (compound 0.18519 uM); 104% in the assay on human PBMCs or CD4 cells (compound 0.55556 uM). The figures for the “Rescue of T cell proliferation (%)” value in the assay on human PBMCs or CD4 cells (compound 1.66667 uM) and with human PBMCs or CD4 cells (compound 5.00 uM) were 106% and 107%, respectively.

In the case of `O=c1[nH]cc(-c2cc([C@H]3CC3(F)F)c(Cl)nn2)c(=O)[nH]1` (single isomer, unassigned) [Example 9], the EC50 at CD73 was found to be 297 nM.

In the case of `CC[C@H]1C[C@@H]1c1cc(-c2c[nH]c(=O)[nH]c2=O)nnc1C#N` [Example 22, 6-(2,4-Dioxo-1H-pyrimidin-5-yl)-4-[(1S,2S)-2-ethylcyclopropyl]pyridazine-3-carbonitrile], the EC50 at CD73 was determined as 212 nM.

Regarding `CC(C)[C@H]1C[C@@H]1c1cc(-c2c[nH]c(=O)[nH]c2=O)nnc1Cl` (relative stereo) [Example 8, 5-[6-Chloro-5-[rel-(1S,2R)-2-isopropylcyclopropyl]pyridazin-3-yl]-1H-pyrimidine-2,4-dione], the EC50 on CD73 was determined as 179 nM.

With `O=c1[nH]cc(-c2cc([C@H]3C[C@@H]3C(F)F)c(Cl)nn2)c(=O)[nH]1` [Example 10, 5-[6-Chloro-5-[(1S,2S)-2-(difluoromethyl)cyclopropyl]pyridazin-3-yl]-1H-pyrimidine-2,4-dione], the EC50 at CD73 worked out at 55 nM.
